Assay results reported in PubChem BioAssay AID2060899 (Molecular Pharmacology Branch, DTP, NCI, 2025).

Tested on: 565726-208-R1-J5-PDC complex spheroids, growth inhibition
Experiment: Anticancer human tumor 565726-208-R1-J5-PDC patient-derived pancreatic adenocarcinoma cell line growth inhibition [RAS]
Conditions: for viability, T/C: stronger effect = lower value
In short: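 Agents were tested in combination matrices in half-log decrements from a top concentration at or near clinical Cmax (10 microM if undetermined). Targets were multi-cell spheroids of tumour lines plus HUVEC and MSC stromal cells.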
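Further: spheroids exposed to compounds for seven days before readout.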
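Wherever viability, T/C is given: 100% = DMSO vehicle control viability.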

## O=C(c1ccc(F)c(F)c1Nc1ccc(I)cc1F)N1CC(O)([C@@H]2CCCCN2)C1 + C=CC(=O)N1CCN(c2nc(OCC3CCCN3C)nc3c(F)c(-c4nc(N)cc(C)c4C(F)(F)F)c(Cl)cc23)C(C)C1
Curve of first compound, second compound 0.00316 µM
  IC50: 460 nM
Curve of first compound, second compound 0.01 µM
  IC50: 290 nM
Curve of first compound, second compound 0.0316 µM
  IC50: > 1000 nM
Curve of first compound, second compound 0.1 µM
  IC50: 365 nM
Curve of first compound, second compound 0.316 µM
  IC50: > 1000 nM
Curve of first compound, second compound 1 µM
  IC50: 759 nM
Second compound 0.00316 µM, first compound 0.00316 µM
  viability, T/C: 105%
Second compound 0.00316 µM, first compound 0.01 µM
  viability, T/C: 142%
Second compound 0.00316 µM, first compound 0.0316 µM
  viability, T/C: 73.3%
Second compound 0.00316 µM, first compound 0.1 µM
  viability, T/C: 78.3%
Second compound 0.00316 µM, first compound 0.316 µM
  viability, T/C: 58.1%
Second compound 0.00316 µM, first compound 1 µM
  viability, T/C: 39.1%
Second compound 0.01 µM, first compound 0.00316 µM
  viability, T/C: 120%
Second compound 0.01 µM, first compound 0.01 µM
  viability, T/C: 141%
Second compound 0.01 µM, first compound 0.0316 µM
  viability, T/C: 88.3%
Second compound 0.01 µM, first compound 0.1 µM
  viability, T/C: 71.3%
Second compound 0.01 µM, first compound 0.316 µM
  viability, T/C: 56.6%
Second compound 0.01 µM, first compound 1 µM
  viability, T/C: 30.1%
Second compound 0.0316 µM, first compound 0.00316 µM
  viability, T/C: 146%
Second compound 0.0316 µM, first compound 0.01 µM
  viability, T/C: 174%
Second compound 0.0316 µM, first compound 0.0316 µM
  viability, T/C: 75.4%
Second compound 0.0316 µM, first compound 0.1 µM
  viability, T/C: 82.4%
Second compound 0.0316 µM, first compound 0.316 µM
  viability, T/C: 56.4%
Second compound 0.0316 µM, first compound 1 µM
  viability, T/C: 38.1%
Second compound 0.1 µM, first compound 0.00316 µM
  viability, T/C: 138%
Second compound 0.1 µM, first compound 0.01 µM
  viability, T/C: 137%
Second compound 0.1 µM, first compound 0.0316 µM
  viability, T/C: 91.1%
Second compound 0.1 µM, first compound 0.1 µM
  viability, T/C: 69.8%
Second compound 0.1 µM, first compound 0.316 µM
  viability, T/C: 60%
Second compound 0.1 µM, first compound 1 µM
  viability, T/C: 36.3%
Second compound 0.316 µM, first compound 0.00316 µM
  viability, T/C: 154%
Second compound 0.316 µM, first compound 0.01 µM
  viability, T/C: 139%
Second compound 0.316 µM, first compound 0.0316 µM
  viability, T/C: 73.1%
Second compound 0.316 µM, first compound 0.1 µM
  viability, T/C: 71.3%
Second compound 0.316 µM, first compound 0.316 µM
  viability, T/C: 56.7%
Second compound 0.316 µM, first compound 1 µM
  viability, T/C: 38.9%
Second compound 1 µM, first compound 0.00316 µM
  viability, T/C: 137%
Second compound 1 µM, first compound 0.01 µM
  viability, T/C: 137%
Second compound 1 µM, first compound 0.0316 µM
  viability, T/C: 82.2%
Second compound 1 µM, first compound 0.1 µM
  viability, T/C: 85.9%
Second compound 1 µM, first compound 0.316 µM
  viability, T/C: 61.2%
Second compound 1 µM, first compound 1 µM
  viability, T/C: 50.3%

## CCn1c(-c2cccnc2C(C)OC)c2c3cc(ccc31)N1CCOC(CC(NC(=O)C(C(C)C)N(C)C(=O)C3(F)CCN(C(=O)C#CC(C)(C)N(C)C)CC3)C(=O)N3CCCC(N3)C(=O)OCC(C)(C)C2)C1 (stereo unspecified)
Compound 0.000949 µM
  viability, T/C: 102% [middle of 8 runs]
Compound 0.003 µM
  viability, T/C: 99.7% [middle of 8 runs]
Compound 0.00949 µM
  viability, T/C: 104% [middle of 8 runs]
Compound 0.03 µM
  viability, T/C: 103% [middle of 8 runs]
Compound 0.0949 µM
  viability, T/C: 103% [middle of 8 runs]
Compound 0.3 µM
  viability, T/C: 90% [middle of 8 runs]
Compound alone, run of 07/09/2024
  IC50: > 300 nM

## C[C@@H](NC(=O)c1ncnc(N)c1Cl)c1ncc(C(=O)Nc2cc(C(F)(F)F)c(Cl)cn2)s1 + CCn1c(-c2cc(N3CCN(C)CC3)cnc2C(C)OC)c2c3cc(ccc31)-c1csc(n1)CC(NC(=O)C1CC1C)C(=O)N1CCCC(N1)C(=O)OCC(C)(C)C2
Curve of first compound, second compound 0.000949 µM
  IC50: > 10000 nM
Curve of first compound, second compound 0.003 µM
  IC50: > 10000 nM
Curve of first compound, second compound 0.00949 µM
  IC50: < 31.6 nM
Curve of first compound, second compound 0.03 µM
  IC50: < 31.6 nM
Curve of first compound, second compound 0.0949 µM
  IC50: < 31.6 nM
Curve of first compound, second compound 0.3 µM
  IC50: < 31.6 nM
Second compound 0.000949 µM, first compound 0.0316 µM
  viability, T/C: 65.1%
Second compound 0.000949 µM, first compound 0.1 µM
  viability, T/C: 73.5%
Second compound 0.000949 µM, first compound 0.316 µM
  viability, T/C: 76.7%
Second compound 0.000949 µM, first compound 1 µM
  viability, T/C: 69.5%
Second compound 0.000949 µM, first compound 3.16 µM
  viability, T/C: 72.1%
Second compound 0.000949 µM, first compound 10 µM
  viability, T/C: 58%
Second compound 0.003 µM, first compound 0.0316 µM
  viability, T/C: 61%
Second compound 0.003 µM, first compound 0.1 µM
  viability, T/C: 57.5%
Second compound 0.003 µM, first compound 0.316 µM
  viability, T/C: 57.3%
Second compound 0.003 µM, first compound 1 µM
  viability, T/C: 58.1%
Second compound 0.003 µM, first compound 3.16 µM
  viability, T/C: 56.8%
Second compound 0.003 µM, first compound 10 µM
  viability, T/C: 46.5%
Second compound 0.00949 µM, first compound 0.0316 µM
  viability, T/C: 48%
Second compound 0.00949 µM, first compound 0.1 µM
  viability, T/C: 48.2%
Second compound 0.00949 µM, first compound 0.316 µM
  viability, T/C: 49.9%
Second compound 0.00949 µM, first compound 1 µM
  viability, T/C: 48%
Second compound 0.00949 µM, first compound 3.16 µM
  viability, T/C: 52.5%
Second compound 0.00949 µM, first compound 10 µM
  viability, T/C: 40.8%
Second compound 0.03 µM, first compound 0.0316 µM
  viability, T/C: 34.9%
Second compound 0.03 µM, first compound 0.1 µM
  viability, T/C: 39.1%
Second compound 0.03 µM, first compound 0.316 µM
  viability, T/C: 36.2%
Second compound 0.03 µM, first compound 1 µM
  viability, T/C: 37.4%
Second compound 0.03 µM, first compound 3.16 µM
  viability, T/C: 40.3%
Second compound 0.03 µM, first compound 10 µM
  viability, T/C: 31.4%
Second compound 0.0949 µM, first compound 0.0316 µM
  viability, T/C: 31.2%
Second compound 0.0949 µM, first compound 0.1 µM
  viability, T/C: 32.2%
Second compound 0.0949 µM, first compound 0.316 µM
  viability, T/C: 31.7%
Second compound 0.0949 µM, first compound 1 µM
  viability, T/C: 32.5%
Second compound 0.0949 µM, first compound 3.16 µM
  viability, T/C: 32.9%
Second compound 0.0949 µM, first compound 10 µM
  viability, T/C: 29.1%
Second compound 0.3 µM, first compound 0.0316 µM
  viability, T/C: 24.6%
Second compound 0.3 µM, first compound 0.1 µM
  viability, T/C: 27.8%
Second compound 0.3 µM, first compound 0.316 µM
  viability, T/C: 26.7%
Second compound 0.3 µM, first compound 1 µM
  viability, T/C: 29.8%
Second compound 0.3 µM, first compound 3.16 µM
  viability, T/C: 31%
Second compound 0.3 µM, first compound 10 µM
  viability, T/C: 28.2%
